Source: ChEMBL document CHEMBL1136340, “Indole-2-carboxamides as novel NR2B selective NMDA receptor antagonists” (Bioorg Med Chem Lett, 2003)

Experiments:
[1] = molecular target: Glutamate NMDA receptor; GRIN1/GRIN2B (Homo sapiens, UniProt Q05586+Q13224); assay: Inhibition of N-methyl-D-aspartate glutamate receptor-evoked increase of intracellular Ca+ in cells expressing NMDA glutamate receptor 1/2B; assay type: functional, cell-based
[2] = molecular target: Glutamate [NMDA] receptor; assay: Inhibition of [3H]Ro-256981 binding to N-methyl-D-aspartate glutamate receptor; assay type: protein-complex assay

Glutamate NMDA receptor; GRIN1/GRIN2B, sequence (Q13224 whole entry, other chains not shown): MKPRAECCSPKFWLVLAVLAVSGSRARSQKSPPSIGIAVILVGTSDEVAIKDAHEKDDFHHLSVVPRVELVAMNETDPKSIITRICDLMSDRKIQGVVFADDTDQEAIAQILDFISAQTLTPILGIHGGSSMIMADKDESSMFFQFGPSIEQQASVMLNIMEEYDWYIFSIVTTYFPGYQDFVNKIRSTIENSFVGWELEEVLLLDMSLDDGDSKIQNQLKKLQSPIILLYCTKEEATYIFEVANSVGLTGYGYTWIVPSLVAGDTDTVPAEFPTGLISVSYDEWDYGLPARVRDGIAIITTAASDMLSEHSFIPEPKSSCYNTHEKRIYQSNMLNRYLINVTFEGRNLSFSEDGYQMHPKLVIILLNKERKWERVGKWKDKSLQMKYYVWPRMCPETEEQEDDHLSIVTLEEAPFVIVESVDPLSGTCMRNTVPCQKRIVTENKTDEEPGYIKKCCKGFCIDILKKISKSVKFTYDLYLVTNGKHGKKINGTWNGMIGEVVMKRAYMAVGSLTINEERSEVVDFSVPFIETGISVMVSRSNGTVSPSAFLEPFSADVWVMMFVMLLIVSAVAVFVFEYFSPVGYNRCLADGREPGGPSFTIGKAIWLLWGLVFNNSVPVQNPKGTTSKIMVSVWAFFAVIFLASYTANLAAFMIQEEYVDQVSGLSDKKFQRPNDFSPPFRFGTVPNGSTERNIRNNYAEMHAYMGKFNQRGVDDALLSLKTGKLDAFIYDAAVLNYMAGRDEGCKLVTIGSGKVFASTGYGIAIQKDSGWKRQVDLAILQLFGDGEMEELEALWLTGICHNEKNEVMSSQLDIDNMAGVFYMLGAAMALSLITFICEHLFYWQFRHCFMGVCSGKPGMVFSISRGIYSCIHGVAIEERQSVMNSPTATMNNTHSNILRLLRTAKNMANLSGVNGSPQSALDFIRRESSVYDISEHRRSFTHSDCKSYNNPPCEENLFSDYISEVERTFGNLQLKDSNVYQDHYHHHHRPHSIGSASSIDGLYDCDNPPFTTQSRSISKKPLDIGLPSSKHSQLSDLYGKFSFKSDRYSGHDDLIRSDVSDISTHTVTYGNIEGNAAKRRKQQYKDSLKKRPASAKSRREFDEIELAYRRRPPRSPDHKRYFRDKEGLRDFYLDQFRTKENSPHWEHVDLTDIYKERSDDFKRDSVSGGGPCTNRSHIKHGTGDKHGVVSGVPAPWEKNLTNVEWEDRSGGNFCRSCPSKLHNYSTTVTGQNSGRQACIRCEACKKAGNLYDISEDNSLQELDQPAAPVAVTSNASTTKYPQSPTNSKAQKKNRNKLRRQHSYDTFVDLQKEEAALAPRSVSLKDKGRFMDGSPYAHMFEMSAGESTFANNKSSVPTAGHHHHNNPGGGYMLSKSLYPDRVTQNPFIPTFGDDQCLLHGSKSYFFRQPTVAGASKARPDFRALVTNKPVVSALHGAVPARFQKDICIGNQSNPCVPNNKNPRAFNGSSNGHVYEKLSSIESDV

SMILES	IC50 [1] [nM]	IC50 [2] [nM]
O=C(/C=C/c1ccc(O)cc1)N1CCC(Cc2ccccc2)CC1	104	196
O=C(c1cc2c(O)cccc2[nH]1)N1CCC(Cc2ccccc2)CC1	39	18
C[C@@H](CN1CCC(Cc2ccccc2)CC1)[C@@H](O)c1ccc(O)cc1	57	6
O=C(c1cc2ccc(O)cc2[nH]1)N1CCC(c2ccccc2)CC1	> 8000	
O=C(c1cc2ccc(O)cc2[nH]1)N1CCC(CCc2ccccc2)CC1	24	359
O=C(c1cc2ccc(O)cc2[nH]1)N1CCC(OCc2ccccc2)CC1	46	47
O=c1[nH]c2ccc([S+]([O-])CCN3CCC(Cc4ccc(F)cc4)CC3)cc2o1 (stereo not drawn) [BESONPRODIL]	8	4

The next lines start with the values.

IC50 [1] [nM]	IC50 [2] [nM]	SMILES
77	380	O=C(c1cc2cccc(O)c2[nH]1)N1CCC(Cc2ccccc2)CC1
52	106	O=C(c1cc2cc(O)cc(O)c2[nH]1)N1CCC(Cc2ccccc2)CC1
40	31	O=C(c1cc2cc(O)ccc2[nH]1)N1CCC(Cc2ccccc2)CC1
10	6	O=C(c1cc2c(O)cc(O)cc2[nH]1)N1CCC(Cc2ccccc2)CC1
20	12	O=C(c1cc2ccc(O)cc2[nH]1)N1CCC(Cc2ccccc2)CC1
